The values that follow come from patent US20130143872A1, “INJECTABLE FORMULATION OF A REVERSE TRANSCRIPTASE INHIBITOR FOR THE TREATMENT CANCER” (priority 2010, published 2013).

Converted amounts (≈) assume the structure as drawn.

The conditions of data set [1]: cited from earlier work.
Data set [2] can be described thus: Recrystallisation of nevirapine from water-ethanol co-solvent systems: crystal form and crystal habit. The format is physicochemical.
Where [3] appears, read: EtOH:H2O 90:0 ml, water content 0 % v/v.
Setting [4] is: EtOH:H2O 90:4.7 ml, water content 5 % v/v.
Where [5] appears, read: EtOH:H2O 90:22.5 ml, water content 20 % v/v.
Where [6] appears, read: EtOH:H2O 90:38.6 ml, water content 30 % v/v.
Where [7] appears, read: EtOH:H2O 90:60 ml, water content 40 % v/v.
[8] abbreviates: EtOH:H2O 90:90 ml, water content 50 % v/v.
The mark [9] stands for this setting: EtOH:H2O 90:135 ml, water content 60 % v/v.
The mark [10] stands for this setting: EtOH:H2O 90:210 ml, water content 70 % v/v.
The mark [11] stands for this setting: EtOH:H2O 90:360 ml, water content 80 % v/v.

Turning to `Nc1ncnc2c1ncn2CCOCP(=O)(O)O` [Adefonir], in data set [1], the solubility in water is 400 µg/mL (≈ 1460 µM).

For the compound `Cc1ccnc2c1NC(=O)c1cccnc1N2C1CC1` [nevirapine], the “Crystal Habit” value in data set [2] (EtOH:H2O 90:0 ml (so in the source), water content 10 % v/v) is reported as “Very small tabular”; in data set [2] (setting [3]), “Tabular crystals”; in data set [2] (setting [4]) it was “Smaller tabular”; in data set [2] (setting [5]), “Disorganized”; in data set [2] (setting [6]), “Disorganized”; in data set [2] (setting [7]) it was “Columnar clusters”. The “Crystal Habit” value in data set [2] (setting [8]) is on record as “Platy clusters”; in data set [2] (setting [9]) it was “Platy crystals”; in data set [2] (setting [10]), “Platy crystals”; in data set [2] (setting [11]), “Very small bladed”. The “Nevirapine Form Obtained” value was “Hemi-Ethanolate” in data set [2] (setting [3]); “Hemi-Ethanolate” in data set [2] (setting [4]); “Hemi-Hydrate” in data set [2] (setting [5]); “Hemi-Hydrate” in data set [2] (setting [6]); “Hemi-Hydrate” in data set [2] (setting [7]); “Hemi-Hydrate” in data set [2] (setting [8]). In addition, the “Nevirapine Form Obtained” value in data set [2] (setting [9]) is “Hemi-Hydrate”; in data set [2] (setting [10]) it was “Hemi-Hydrate”; in data set [2] (setting [11]), “Anhydrous”.
